Source: US5872015A, “Molecular diversity screening method” (Board of Trustees of the University of Illinois, priority 1996, dated 1999)

Key:
[1] = target: T1, Calf intestinal adenosine deaminase (Bos taurus, UniProt P56658)
T1 sequence (P56658 1-363): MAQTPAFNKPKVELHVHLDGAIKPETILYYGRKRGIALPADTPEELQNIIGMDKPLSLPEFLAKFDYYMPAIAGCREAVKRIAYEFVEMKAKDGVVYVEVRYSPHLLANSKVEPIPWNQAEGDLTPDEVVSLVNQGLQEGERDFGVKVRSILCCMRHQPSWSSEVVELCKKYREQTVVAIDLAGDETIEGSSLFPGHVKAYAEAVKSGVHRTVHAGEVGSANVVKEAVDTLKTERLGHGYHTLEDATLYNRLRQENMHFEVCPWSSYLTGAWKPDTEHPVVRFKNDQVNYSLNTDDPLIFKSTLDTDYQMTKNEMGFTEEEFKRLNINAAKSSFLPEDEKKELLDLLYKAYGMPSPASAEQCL
Procedure: Calf intestinal adenosine deaminase (or another type of adenosine deaminase) is loaded into the molecular diversity screening device (equipped with a 10,000 molecular weight cutoff membrane) to a concentration of approximately 10 nM. A library of 20 adenosine analogs was prepared including the natural substrate for adenosine deaminase, adenosine (See list of compounds in Table 1).
Next, the adenosine analog library was mixed with adenosine deaminase (in a 1:1 molar ratio) in 33 mM ammonium acetate buffer at pH 7.4, and an aliquot was injected into the molecular diversity screening device to achieve a concentration of adenosine deaminase of approximately 10 nM. After flushing the binding chamber with water at 100 μL/min for 12 min, to wash out library compounds with low affinity for adenosine deaminase, methanol/water (50:50) was pumped through the chamber at 50 μL/min. The latter procedure should perturb binding of any remaining compounds bound to the adenosine deaminase and release them into the detector.

[2] = target: adenosine deaminase (ADA); conditions: cited from earlier work
[3] = test system: adenosine deaminase (ADA); conditions: EHNA 2×10^-8 M continuous influx; ADA 10^-7 M; 33 mM ammonium acetate; release by 25 μL MeOH, three cases
Procedure: At about 10 min, 25 μL of MeOH is injected into the binding chamber resulting in an increase in EHNA--the first peak on the left. This signal is due to an enhanced sensitivity of the detector to EHNA in the presence of MeOH and/or due to release of non-specifically bound EHNA from the device and its parts. At about 40 min, the receptor ADA, in 33 mM ammonium acetate buffer, is introduced into the binding chamber until a receptor concentration of 10^-7 M is reached. […] At about 90 min, 25 μL of MeOH is again introduced to perturb binding and release of EHNA is observed. […] This process is repeated a third time at about 180 min. […] At about 230 min the ADA is removed from the binding chamber by opening the binding chamber wash port 9.

[4] = target: T1, Calf intestinal adenosine deaminase; assay: Selective identification of adenosine deaminase binders from a synthetic library of EHNA-type analogs (ultrafiltration, electrospray MS); assay type: binding; conditions: for detected eluting from the device in the recovery phase: scan mode, positive ion electrospray MS, ADA 7.35 μM, approximately 10 nM each analog, pH 7.4, methanol/water 90:10; for presence of ion in the recovery phase in the presence of ADA / binding to ADA in the presence of a five-fold excess of EHNA: single ion monitoring mode; for presence of ion in the recovery phase in the presence of ADA: with ADA (FIG. 11B); for binding to ADA in the presence of a five-fold excess of EHNA: with ADA and five-fold excess of authentic EHNA (FIG. 11C)
serum albumin = conditions: albumin-pentachlorophenol; read-out: dissociation constant; cited from earlier work
bovine serum albumin = assay: Extraction of pentachlorophenol by bovine serum albumin in the molecular diversity screening device (pulsed ultrafiltration, electrospray MS); assay type: binding
Procedure: The receptor concentration is chosen to be about 100 times the smallest dissociation constant being sought. […] The binding chamber is then washed with binding buffer (i.e., 100 Mm ammonium acetate at Ph 7.4) at 100 μL/min to wash out any low molecular weight impurities. The compound, in this case pentachlorophenol (equimolar or less with respect to the serum albumin in the binding chamber) is then injected into the binding chamber, and elution of pentachlorophenol is monitored using an appropriate detector such as UV absorbance or an electrospray mass spectrometer. An example of the extraction of pentachlorophenol from a binding buffer by bovine serum albumin is shown in FIG. 7 using electrospray mass spectrometric detection.
When pentachlorophenol is injected into the binding chamber without serum albumin present, an abundant peak is detected by the mass spectrometer as pentachlorophenol flows through the device unimpeded (FIG. 7, solid curve). […] Retention of pentachlorophenol in the binding chamber corresponds to tight binding to serum albumin under the predicted concentrations.

detected eluting from the device in the recovery phase [4]	presence of ion in the recovery phase in the presence of ADA [4]	binding to ADA in the presence of a five-fold excess of EHNA [4]	SMILES	further results
detected	present		CCCCCC[C@H]([C@H](C)O)n1cnc2c(N)ncnc21 (relative stereo) [EHNA, erythro-9-(2-hydroxy-3-nonyl)adenine]	detected eluting from the binding chamber on release with methanol/water (50:50) ([1]; ADA approximately 10 nM, 33 mM ammonium acetate pH 7.4, EHNA at 20-fold lower concentration than other compounds): detected; affinity for adenosine deaminase within the library ([1]; library of 20 adenosine analogs): highest affinity; Kd ([2]; read-out: dissociation constant, North, et al., 1979): 7 nM; Ki ([2]; read-out: inhibitor dissociation constant, potent inhibitor of adenosine deaminase, no source given): 2 nM; binding to and release from ADA [3]: released after being bound to the ADA
not detected	did not appear		CC(O)C(Cc1ccccc1)n1cnc2c(N)ncnc21 (centres unmarked) [benzylic]	
not detected	did not appear		CC(C)CC(C(C)O)n1cnc2c(N)ncnc21 (centres unmarked) [isobutyl]	

Second part, the molecule before the results:

SMILES	detected eluting from the device in the recovery phase [4]	presence of ion in the recovery phase in the presence of ADA [4]	binding to ADA in the presence of a five-fold excess of EHNA [4]	further results
CCCCCCCCC(C(C)O)n1cnc2c(N)ncnc21 (centres unmarked) [nC7 H15]	detected	present	suppressed	
CCCCCCCCCCC(C(C)O)n1cnc2c(N)ncnc21 (centres unmarked) [nC10 H21]	detected	present	suppressed	
Oc1c(Cl)c(Cl)c(Cl)c(Cl)c1Cl [pentachlorophenol]				Kd (serum albumin): ~10 nM; extraction from the solution by the albumin receptor molecule (bovine serum albumin; 100 mM ammonium acetate pH 7.4, unstirred 100 μL chamber, albumin approximately 1 μM): almost completely extracted; pentachlorophenol detected by the mass spectrometer after injection with albumin loaded (bovine serum albumin; bovine serum albumin in chamber (FIG. 7, dashed curve)): only a trace
